# Assay results published in PubChem BioAssay (NCI).
#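 Results reflect a 48-hour exposure of cells in 96-well plates to compound at five concentrations. TGI: concentration producing complete growth inhibition.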 Where a SMILES comes first, the peptide text is derived from it. [ ]: non-standard residue; d: D form. The star is where a group is joined. ξ: configuration not given here. Propanoyl(3-(4-MeO-Ph)) = COc1ccc(CCC(=O)*)cc1; Thr(3ξ) = CC(O)[C@H](N)C(=O)O; dNMeL = CN[C@H](CC(C)C)C(=O)O; pGlu = O=C1CC[CH](C(=O)O)N1; ξLac = CC(O)C(=O)O
# Assays:
# Experiment in all cases: DTP human tumour cell line panel, 48 h
# OVCAR-8 ovarian = system: OVCAR-8 ovarian
# LOX IMVI melanoma = system: LOX IMVI melanoma
# UACC-62 melanoma = system: UACC-62 melanoma
# OVCAR-3 ovarian = system: OVCAR-3 ovarian
# A498 renal = system: A498 renal
Compound,TGI (OVCAR-8 ovarian) [µM],TGI (LOX IMVI melanoma) [µM],TGI (UACC-62 melanoma) [µM],TGI (OVCAR-3 ovarian) [µM],TGI (A498 renal) [µM]
NC(=O)CCC(NC(=O)c1cccc2c(=O)c3ccccc3[nH]c12)C(=O)O (stereo not drawn),> 100,> 100,> 100,> 100,> 100
Cc1nc2c(Cl)cc(Cl)cc2c(Cl)c1CCCl,> 100,> 100,> 100,> 100,> 100
O=c1oc2c/c(=C\c3ccccc3)c(=O)c3cccc1c3-2,43.1,40.7,59.9,63,> 100
COC12OC3CC4(C)C(=CC3OC(OC(C)C1O)C2O)CCC1C4CCC2(C)C(c3ccc(=O)oc3)CCC12O (stereo not drawn),0.00318,0.00281,0.00472,0.00639,0.0144
NNC(=O)CCC(NS(=O)(=O)c1ccc(Cl)cc1)C(=O)NN (stereo not drawn),> 100,> 100,> 100,> 100,> 100
O=S(=O)(O)c1cc(Nc2ccnc3ccccc23)c2c(S(=O)(=O)O)cc(S(=O)(=O)O)cc2c1,> 100,> 100,> 100,> 100,> 100
COC(=O)[C@@H](NC(=O)[C@@H](CC(C)C)N(C)C(=O)[C@@H]1CCCN1C(=O)C(C)O)C(C)OC(=O)CCc1ccc(OC)cc1 (stereo partly drawn) (H-[ξLac]P[dNMeL][Thr(3ξ)](Propanoyl(3-(4-MeO-Ph)))-OMe),> 100,> 100,> 100,> 100,> 100
CSC1(SC)N2Cc3ccccc3N=C2C1(c1ccccc1)c1ccccc1,> 79.6,44.4,> 55.3,28.3,> 46.9
Cn1c(N=[N+]=[N-])cc(=O)n(C)c1=O,> 100,> 100,> 100,> 100,> 100
COc1cc(/C=c2/c3ccccc3n3c2cc(-c2ccccc2)[n+]3C)cc(OC)c1OC,12.9,12.6,10.5,6.82,> 58.3
COc1cc(O)c2c(=O)c(OC)c(-c3ccc4c(c3)OCO4)oc2c1OC,> 50,> 50,> 50,> 50,> 50
CCOc1cc2c(cc1O)CC[C@@H]1[C@@H]2CC[C@]2(C)C(OS(=O)OC3CC[C@@H]4[C@H]5CCc6cc(O)c(OCC)cc6[C@@H]5CC[C@@]34C)CC[C@@H]12 (stereo partly drawn),10,> 51.7,30.9,0.813,36.6
CC1=Nc2c(C#N)ncn2N=C(C)C1,,> 100,> 100,> 100,> 100
Cc1cc(C)c2c(=N)c3ccccc3n(CCCCCCn3c4ccccc4c(=N)c4c(C)cc(C)nc43)c2n1,3.14,,3.26,3.09,3.12
CN(C)CCCNc1cnc2cc3ccccc3cc2n1,59.4,35.7,30,> 100,> 100
CCCC(=O)Nc1cc(/C=C/C(=O)N2CC(CCl)c3c2cc([N+](=O)[O-])c2ccccc32)n(C)c1 (stereo not drawn),> 100,,> 100,> 100,> 87.9
COC(=O)c1c(O)ccc2c1c1c(n2Cc2ccccn2)C(=O)c2ccccc2C1=O,> 100,,> 100,64.8,> 100
O=C(Cc1ccccc1)N=Nc1c(O)[nH]c2ccccc12,> 100,,> 100,> 100,80.4
COc1ccc(-c2nnc(CCCCCCCCc3nnc(-c4ccc(OC)cc4)n3N)n2N)cc1,> 31.6,> 100,> 100,> 100,> 100
COc1nc2ccc(CNc3ccc(C(=O)O)cc3)cc2nc1OC,> 10,> 10,> 10,> 10,> 10
COc1cccc2c1-c1c(OC)cccc1SS2,72.6,23.5,92.5,48.7,27.4
COc1ccc(CCNC(=O)CCCCCO)cc1OC,> 100,,> 100,> 100,> 100

Compound,TGI (OVCAR-8 ovarian) [µM],TGI (LOX IMVI melanoma) [µM],TGI (UACC-62 melanoma) [µM],TGI (OVCAR-3 ovarian) [µM],TGI (A498 renal) [µM]
CNc1ncnc2c1nnn2C,> 100,> 100,> 100,> 100,> 100
Cc1ccc(C(=O)C2=CN=C3C(=O)N(c4ccccc4)N(C)C3(C)C2=N)cc1 (stereo not drawn),> 100,> 100,> 100,> 100,> 100
CC(C)(C)OC(=O)N1Cc2cc(O)ccc2C[C@H]1C(=O)O,> 100,> 100,> 100,> 100,> 100
COC(=O)c1c(O)ccc2c1c1c(n2Cc2ccccc2OC)C(=O)c2ccccc2C1,> 100,> 100,> 100,> 100,> 100
O=C1c2ccccc2-c2nnc(-c3ccc(Cl)cc3)cc21,> 10,> 10,> 10,> 10,> 10
O=C(NN1C(=O)CSC1c1ccco1)c1ccncc1 (stereo not drawn),> 100,,> 100,> 100,> 100
CC1C2CC(CC2N)C1(C)C (stereo not drawn),> 100,,> 100,> 100,> 100
S=c1nc2sc3c(c2c(Nc2ccc(Br)cc2)[nH]1)CCN(N1CCc2c(sc4nc(=S)[nH]c(Nc5ccc(Br)cc5)c24)C1)C3,> 50,24.9,> 50,> 50,31.3
COc1c(-c2cccs2)oc2c(CC(=O)O)cccc2c1=O,,,> 100,> 100,> 100
CCCCC1(N=[N+]=[N-])C(=O)C2C=CC=C3c4ccccc4N(C1=O)C32 (stereo not drawn),> 31.6,> 31.6,> 31.6,> 31.6,> 10
CCOC(=O)c1cn(CC)c2cc3c(cc2c1=O)CCS3(=O)=O,> 100,,> 100,> 100,> 100
Clc1cc(OCC23CC4CC(CC(C4)C2)C3)nc(OCC23CC4CC(CC(C4)C2)C3)n1,> 100,> 100,> 100,> 100,> 100
COc1cc([C@@H]2c3cc4c(cc3[C@@H](N=Cc3ccc(C(=O)O[C@@H](C(=O)O[C@H]5C[C@@]6(O)[C@@H](OC(=O)c7ccccc7)[C@@H]7[C@]8(OC(C)=O)CO[C@@H]8C[C@H](O)[C@@]7(C)C(=O)[C@H](OC(C)=O)C(=C5C)C6(C)C)[C@@H](NC(=O)c5ccccc5)c5ccccc5)cc3)[C@H]3COC(=O)[C@H]23)OCO4)cc(OC)c1O,> 50,> 50,> 50,0.164,26.2
COc1ccc(N=N/C(=N/NC(=O)c2cc(Cl)ccc2C(=O)c2ccccc2)c2ccc(N(CCC#N)CCC#N)cc2C)cc1,46.1,,51.8,27.9,
CCOC(=O)C1=CC(C)(C(=O)OCC)Nc2c(nc(SC)n(C)c2=O)N1 (stereo not drawn),> 10,> 10,,> 10,> 10
CC1(C)OCC(COC(=O)NCn2cc(-c3ccccc3)nn2)O1 (stereo not drawn),> 100,> 100,,,
Cc1oncc1NC1=CC(=O)C(=O)c2ccccc21,11.9,10.5,8.4,4.97,17.9
c1ccc(CCN2CCN=C2Cc2ccccc2)cc1,> 100,> 100,> 100,> 100,> 100
COC(=O)C(Cc1ccccc1)NC(=O)c1ccc(CNC(=S)NCc2cccc(CNC(=S)NCc3ccccc3)c2)cc1 (stereo not drawn),> 62.5,> 62.5,> 62.5,> 62.5,> 62.5
CCCCCCCCCCCCCCCCCCOc1ccc(/C=C/C2=[N+](CCCl)CCO2)cc1,> 100,> 100,> 100,> 100,> 100
CCOC(=O)Cn1nnc2cc(Nc3nc4ccccc4nc3C(=O)OCC)ccc21,> 100,> 100,> 100,> 100,> 100
COP(=O)(OC)c1ccc(NCc2cc(O)ccc2O)cc1,> 71.2,> 75.4,43.9,16.5,> 100

Compound,TGI (OVCAR-8 ovarian) [µM],TGI (LOX IMVI melanoma) [µM],TGI (UACC-62 melanoma) [µM],TGI (OVCAR-3 ovarian) [µM],TGI (A498 renal) [µM]
CC(NC(=O)C(Cc1cnc[nH]1)NC(=O)C1CCC(=O)N1)C(N)=O (stereo not drawn) ([pGlu]-His-Ala-NH2; configuration not given here),> 100,> 100,> 100,> 100,
Cc1cc2c(cc1-c1cc3c(cc1C)C(C(C)C)=C(O)C(=O)/C3=C\Nc1c(C)n(C)n(-c3ccccc3)c1=O)/C(=C/Nc1c(C)n(C)n(-c3ccccc3)c1=O)C(=O)C(O)=C2C(C)C,> 100,,> 100,> 100,> 100
COc1ccc2c(c1)CC1(O)COc3cc(OC)ccc3C1O2 (stereo not drawn),> 100,> 100,> 100,> 100,> 100
CCCCCC(O)(CCCCC)CCCCCCCCC1=C(O)c2ccccc2C(=O)C1=O,33,18,21.1,29.4,21.5
N#CCOc1cccc(C2(N3CC=CCC3)CCCCC2)c1,> 100,> 100,> 100,> 100,> 100
COc1ccc(N2C(N)=C(C#N)C(C#N)(C#N)C2c2cccc([N+](=O)[O-])c2)cc1 (stereo not drawn),32.8,27.6,30.1,30.1,29.9
CO[C@H]1C[C@H](n2cc(C)c(=O)[nH]c2=O)O[C@@H]1CO,> 100,> 100,> 100,> 100,> 100
COc1ccc(S(=O)(=O)Nc2ccc(-c3csc(N4C(=O)/C(=C/c5ccccc5)N=C4c4ccccc4)n3)cc2)cc1Cl,> 100,> 100,> 100,> 100,48.7
CC(C)(C)c1cc(/C=C/C(=O)CC(=O)/C=C/c2cc(C(C)(C)C)c(O)c(C(C)(C)C)c2)cc(C(C)(C)C)c1O,> 50,> 50,> 50,> 50,
COc1ccc2oc(=Nc3ccc(F)cc3)c(C(N)=O)cc2c1,> 100,> 100,> 100,> 100,58.7
CCNc1cc2c3c(c1)CCCN3CCC2,56.4,13.5,41,19.1,65.3
C=CC[C@@H]1C=C[C@@H](C(=O)OC)n2c(=O)n(-c3ccccc3)c(=O)n21,> 100,> 100,> 100,> 100,> 100
COc1ccc(-c2nnc(-c3ccncc3)o2)cc1,> 100,> 100,> 100,> 100,> 100
CCC/C(Cl)=N\OC(=O)Nc1ccc(F)c([N+](=O)[O-])c1,31.3,66.8,37.7,28.9,48.4
CCCCNC(=S)c1ccc(OC(=O)Nc2ccc(Cl)cc2)cc1,> 100,> 100,93.6,> 100,> 100
Cc1c(O)c(=O)ccn1CCc1c[nH]c2ccccc12,73.6,17,,,
CC(O)c1cc2c(s1)C(=O)c1scc(C(C)O)c1C2=O (stereo not drawn),0.857,> 100,0.587,,4.36
COc1ccc(/C=N\NC(=O)Nc2cccc3ccccc23)cc1,,> 100,,,51.6
O=C(O)CN(CC(=O)O)Cc1ccn(-c2cccc(-n3ccc(CN(CC(=O)O)CC(=O)O)n3)n2)n1,> 100,,> 100,> 100,
Cc1cc2c(c(C(=O)NCCC(=O)N[C@@H](C)C(=O)OCc3ccccc3)c1)Oc1c(cc(C)cc1C(=O)NCCC(=O)N[C@@H](C)C(=O)OCc1ccccc1)S2,> 100,,> 100,> 100,> 100
N#CCSc1c(-c2ccccc2)c(=O)n(-c2ccccc2)c(=S)n1-c1ccccc1,> 100,> 100,> 100,> 100,
Clc1ccc2nc(CC3CCCC3)[nH]c2c1,> 100,29.9,33.4,22.7,
